Data from ChEMBL document CHEMBL1697731, “Cheminformatics analysis of assertions mined from literature that describe drug-induced liver injury in different species” (Chem Res Toxicol, 2010).

Tests used:
[1] = test system: Hepatotoxicity; test: Literature-mined compound from Fourches et al multi-species drug-induced liver injury (DILI) dataset, effect in humans; settings: human
[2] = test system: Hepatotoxicity; test: Literature-mined compound from Fourches et al multi-species drug-induced liver injury (DILI) dataset, effect in rodents; settings: rodentia
[3] = test system: Hepatotoxicity; test: Literature-mined compound from Fourches et al multi-species drug-induced liver injury (DILI) dataset, effect in non-rodents

Compound	Hepatotoxicity [1]	Hepatotoxicity [2]	Hepatotoxicity [3]	Hepatotoxicity ([1]; Liver)	Hepatotoxicity ([2]; Liver)	Hepatotoxicity ([3]; Liver)
C[C@@H]1CN(c2c(F)c(N)c3c(=O)c(C(=O)O)cn(C4CC4)c3c2F)C[C@H](C)N1 [SPARFLOXACIN]	drug-induced liver injury reported	no drug-induced liver injury reported	no drug-induced liver injury reported			
CC(=O)S[C@@H]1CC2=CC(=O)CC[C@]2(C)[C@H]2CC[C@@]3(C)[C@@H](CC[C@@]34CCC(=O)O4)[C@H]12 [SPIRONOLACTONE]	drug-induced liver injury reported	drug-induced liver injury reported	no drug-induced liver injury reported			
C[C@]12Cc3c[nH]nc3C[C@@H]1CC[C@@H]1[C@@H]2CC[C@@]2(C)[C@H]1CC[C@]2(C)O [STANOZOLOL]	drug-induced liver injury reported	drug-induced liver injury reported	no drug-induced liver injury reported			
Cc1cn([C@H]2C=C[C@@H](CO)O2)c(=O)[nH]c1=O [STAVUDINE]	drug-induced liver injury reported	drug-induced liver injury reported	no drug-induced liver injury reported			
[H]/N=C(/N)N[C@H]1[C@H](O)[C@@H](O)[C@H](O[C@@H]2O[C@@H](C)[C@](O)(C=O)[C@H]2O[C@@H]2O[C@@H](CO)[C@H](O)[C@@H](O)[C@@H]2NC)[C@@H](N/C(N)=N\[H])[C@@H]1O [STREPTOMYCIN]				drug-induced liver injury reported	drug-induced liver injury reported	drug-induced liver injury reported
CN(N=O)C(=O)N[C@@H](C=O)[C@@H](O)[C@H](O)[C@H](O)CO [STREPTOZOCIN]	no drug-induced liver injury reported	drug-induced liver injury reported	drug-induced liver injury reported			
OC[C@H]1O[C@@](CO)(O[C@H]2O[C@H](CO)[C@@H](O)[C@H](O)[C@H]2O)[C@@H](O)[C@@H]1O [SUCROSE]	no drug-induced liver injury reported	drug-induced liver injury reported	drug-induced liver injury reported			
CC1(C)[C@H](C(=O)O)N2C(=O)C[C@H]2S1(=O)=O [SULBACTAM]	drug-induced liver injury reported	no drug-induced liver injury reported	no drug-induced liver injury reported			
Nc1ccc(S(=O)(=O)Nc2ncccn2)cc1 [SULFADIAZINE]				drug-induced liver injury reported	no drug-induced liver injury reported	no drug-induced liver injury reported
COc1cc(NS(=O)(=O)c2ccc(N)cc2)nc(OC)n1 [SULFADIMETHOXINE]	drug-induced liver injury reported	no drug-induced liver injury reported	no drug-induced liver injury reported			
COc1ncnc(NS(=O)(=O)c2ccc(N)cc2)c1OC [SULFADOXINE]	no drug-induced liver injury reported	no drug-induced liver injury reported	drug-induced liver injury reported			
Cc1ccnc(NS(=O)(=O)c2ccc(N)cc2)n1 [SULFAMERAZINE]	no drug-induced liver injury reported	drug-induced liver injury reported	no drug-induced liver injury reported			
Cc1cc(C)nc(NS(=O)(=O)c2ccc(N)cc2)n1 [SULFAMETHAZINE]	drug-induced liver injury reported	drug-induced liver injury reported	no drug-induced liver injury reported			
Cc1nnc(NS(=O)(=O)c2ccc(N)cc2)s1 [SULFAMETHIZOLE]	drug-induced liver injury reported	no drug-induced liver injury reported	no drug-induced liver injury reported			
Cc1cc(NS(=O)(=O)c2ccc(N)cc2)no1 [SULFAMETHOXAZOLE]				drug-induced liver injury reported	no drug-induced liver injury reported	no drug-induced liver injury reported
Nc1ccc(S(N)(=O)=O)cc1 [SULFANILAMIDE]				drug-induced liver injury reported	no drug-induced liver injury reported	no drug-induced liver injury reported
Nc1ccc(S(=O)(=O)Nc2ccnn2-c2ccccc2)cc1 [SULFAPHENAZOLE]	drug-induced liver injury reported	drug-induced liver injury reported	no drug-induced liver injury reported			
Nc1ccc(S(=O)(=O)Nc2ccccn2)cc1 [SULFAPYRIDINE]	no drug-induced liver injury reported	drug-induced liver injury reported	no drug-induced liver injury reported			
O=C(O)c1cc(/N=N/c2ccc(S(=O)(=O)Nc3ccccn3)cc2)ccc1O [SULFASALAZINE]	drug-induced liver injury reported	drug-induced liver injury reported	no drug-induced liver injury reported			
O=C1C(CC[S+]([O-])c2ccccc2)C(=O)N(c2ccccc2)N1c1ccccc1 (stereo not drawn) [SULFINPYRAZONE]	drug-induced liver injury reported	no drug-induced liver injury reported	no drug-induced liver injury reported			
CCCCCCCCNC(C)C(O)c1ccc(SC(C)C)cc1 (stereo not drawn) [SULOCTIDIL]	drug-induced liver injury reported	no drug-induced liver injury reported	no drug-induced liver injury reported			
CCN1CCCC1CNC(=O)c1cc(S(N)(=O)=O)ccc1OC (stereo not drawn) [SULPIRIDE]	drug-induced liver injury reported	no drug-induced liver injury reported	drug-induced liver injury reported			
CC(C(=O)O)c1ccc(C(=O)c2cccs2)cc1 (stereo not drawn) [SUPROFEN]	drug-induced liver injury reported	no drug-induced liver injury reported	no drug-induced liver injury reported			
Cc1ccc(C(=O)Nc2ccc(S(=O)(=O)O)c3cc(S(=O)(=O)O)cc(S(=O)(=O)O)c23)cc1NC(=O)c1cccc(NC(=O)Nc2cccc(C(=O)Nc3cc(C(=O)Nc4ccc(S(=O)(=O)O)c5cc(S(=O)(=O)O)cc(S(=O)(=O)O)c45)ccc3C)c2)c1 [SURAMIN]	drug-induced liver injury reported	drug-induced liver injury reported	drug-induced liver injury reported			
Cl.Nc1c2c(nc3ccccc13)CCCC2 [TACRINE HYDROCHLORIDE]				no drug-induced liver injury reported	drug-induced liver injury reported	no drug-induced liver injury reported
C=CC[C@@H]1/C=C(\C)C[C@H](C)C[C@H](OC)[C@H]2O[C@@](O)(C(=O)C(=O)N3CCCC[C@H]3C(=O)O[C@H](/C(C)=C/[C@@H]3CC[C@@H](O)[C@H](OC)C3)[C@H](C)[C@@H](O)CC1=O)[C@H](C)C[C@@H]2OC [TACROLIMUS ANHYDROUS]	drug-induced liver injury reported	drug-induced liver injury reported	no drug-induced liver injury reported			
